Experimental data as given in PubChem BioAssay (NCI).
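Results reflect a 48-hour exposure of cells in 96-well plates to compound at five concentrations. GI50 marks 50% less growth. TGI: concentration producing complete growth inhibition.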

How the values were obtained:
Test in all cases: NCI tumour cell line growth inhibition, 48 h
COLO 205 colon = test system: COLO 205 colon
HCT-116 colon = test system: HCT-116 colon
A549 NSCLC = test system: A549 NSCLC
SK-OV-3 ovarian = test system: SK-OV-3 ovarian
SK-MEL-28 melanoma = test system: SK-MEL-28 melanoma
A498 renal = test system: A498 renal
UACC-257 melanoma = test system: UACC-257 melanoma
UO-31 renal = test system: UO-31 renal
CAKI-1 renal = test system: CAKI-1 renal
CCRF-CEM leukemia = test system: CCRF-CEM leukemia

Row | Compound | TGI (COLO 205 colon) [µM] | TGI (HCT-116 colon) [µM] | TGI (A549 NSCLC) [µM] | TGI (SK-OV-3 ovarian) [µM] | TGI (SK-MEL-28 melanoma) [µM] | TGI (A498 renal) [µM] | TGI (UACC-257 melanoma) [µM] | TGI (UO-31 renal) [µM] | TGI (CAKI-1 renal) [µM] | GI50 (HCT-116 colon) [µM] | GI50 (A549 NSCLC) [µM] | GI50 (SK-MEL-28 melanoma) [µM] | GI50 (A498 renal) [µM] | GI50 (UACC-257 melanoma) [µM] | GI50 (UO-31 renal) [µM] | GI50 (CAKI-1 renal) [µM] | TGI (CCRF-CEM leukemia) [µM] | GI50 (COLO 205 colon) [µM] | GI50 (SK-OV-3 ovarian) [µM] | GI50 (CCRF-CEM leukemia) [µM]
1 | O=C(O)C(Br)C(Br)C(=O)O (stereo not drawn) | > 100 | > 100 | > 100 | > 100 | > 100 | > 100 | > 100 | > 100 | > 100 | – | – | – | – | – | – | – | – | – | – | –
2 | O=C(O)/C=C/c1ccc[c]([Sb](=[O])([OH])[OH])c1 | – | > 100 | > 100 | – | > 100 | > 100 | > 100 | > 100 | > 100 | > 100 | > 100 | > 100 | > 100 | > 100 | > 100 | > 100 | – | – | – | –
3 | COC1=CC(=O)C(Br)=CC1=O | 31 | – | > 100 | > 100 | 34 | – | 31.1 | 31.7 | 32.4 | – | – | – | – | – | – | – | 8.84 | – | – | –
4 | Cc1ccc2[nH]c3c(c2c1)N=c1ccccc1=NO3 | > 100 | > 100 | > 100 | > 100 | > 100 | – | > 100 | > 100 | 47.6 | 83.8 | > 100 | > 100 | – | 70.6 | 42.2 | 10.5 | > 100 | 31.9 | 29.9 | > 100
5 | CCC[CH2][Sn]([CH2]CCC)([CH2]CCC)[O]C(=O)C(OC(C)=O)c1ccccc1 (stereo not drawn) | 0.321 | 0.276 | 0.309 | 0.273 | 0.274 | 0.305 | 0.284 | 0.292 | 0.3 | 0.136 | 0.143 | 0.142 | 0.154 | 0.149 | 0.157 | 0.159 | – | 0.18 | 0.12 | –
6 | CCN(CC)CCCOc1ccc2ncnc(Nc3ccc(Oc4cccc(C(F)(F)F)c4)c(Cl)c3)c2c1 | – | – | – | – | 2.99 | 3.56 | – | 2.26 | 3.1 | – | – | 1.63 | 0.229 | – | 1.06 | 1.4 | 14.2 | – | – | 2.26
7 | CCCCC[C@H]1CC=C2C(=O)C=C[C@@H]2CC=CCCCC(=O)O[C@@H](CCCCC)CC=C2C(=O)C=C[C@@H]2CC=CCCCC(=O)O[C@@H](CCCCC)CC=C2C(=O)C=C[C@@H]2CC=CCCCC(=O)O1 | 0.368 | 0.906 | 2.12 | > 8.75 | 1.74 | 2.41 | 2.2 | 1.63 | – | 0.221 | 0.529 | 0.311 | 0.75 | 0.456 | 0.457 | – | > 8.75 | 0.169 | 1.62 | 0.251
8 | CCOP(=O)(OCC)/C(C#N)=C\c1ccsc1 | > 100 | > 100 | > 100 | > 100 | > 100 | – | > 100 | > 100 | > 100 | – | – | – | – | – | – | – | – | – | – | –
9 | Cc1cn(CCC(N)C(=O)O)c(=O)[nH]c1=O (stereo not drawn) | > 100 | > 100 | > 100 | > 100 | > 100 | > 100 | > 100 | > 100 | – | – | – | – | – | – | – | – | > 100 | – | – | –
10 | O=c1nc(NC(c2ccccc2)(c2ccccc2)c2ccccc2)ccn1CCCl | 64.7 | 37.1 | > 100 | – | 28.6 | > 100 | – | > 100 | – | – | – | – | – | – | – | – | – | – | – | –
11 | Cc1cc2c(c3nocc13)C(=O)c1ccccc1C2=O | > 100 | – | > 100 | > 100 | > 100 | – | > 100 | > 100 | > 100 | – | – | – | – | – | – | – | > 100 | – | – | –
12 | NCCOCn1cc(Cc2cccc(OCc3ccccc3)c2)c(=O)[nH]c1=O | > 100 | > 100 | > 100 | > 100 | > 100 | – | – | > 100 | – | – | – | – | – | – | – | – | > 100 | – | – | –
13 | CCCCCCCN(CCCCCCC)C(=N)c1ccnc2ccccc12 | 3.51 | – | 3.41 | 3.14 | 3.21 | – | 3.5 | 2.41 | 2.68 | – | 1.77 | 1.68 | – | 1.72 | 1.09 | 1.32 | 5.27 | 1.58 | 1.64 | 2.14
14 | CCNc1cc2oc(=O)cc(C(F)(F)F)c2cc1C | > 100 | > 100 | > 100 | > 100 | > 100 | > 100 | > 100 | > 100 | > 100 | – | – | – | – | – | – | – | – | – | – | –
